Experimental data published in ChEMBL document CHEMBL5143574, “Unraveling the anti-virulence potential and antifungal efficacy of 5-aminotetrazoles using the zebrafish model of disseminated candidiasis” (Eur J Med Chem, 2022).
≈ marks a conversion by molar mass, not a printed value. Calls of active or inactive are those of the source. The calls are words filed in the database; no cut-off is given here.

Experiments:
[1] = Hepatotoxicity in zebrafish embryos assessed as liver failure by measuring necrotic and decreased liver with non-resorbed yolk at 0.25 uM treated at 6 hpf and measured at 120 hpf by stereomicroscopic analysis; assay type: toxicity, tissue-based, Danio rerio; conditions: in vivo
[2] = Cardiotoxicity in zebrafish embryos assessed as pericardial edema at 0.25 uM treated at 6 hpf and measured at 120 hpf by stereomicroscopic analysis; assay type: toxicity, Danio rerio
Candida albicans [3] = experiment: Anti-virulence activity against Candida albicans SC5314 assessed as inhibition of fungal filamentation by measuring reduction in hyphae formation in Spider medium at 5 uM incubated for 3 to 5 days by stereomicroscopic analysis; assay type: functional, organism-based; conditions: time 3-5 day
Candida albicans [4] = experiment: Anti-virulence activity against Candida albicans SC5314 assessed as inhibition of fungal filamentation by measuring reduction in hyphae formation in YPS plus uridine medium at 5 uM incubated for 3 to 5 days by stereomicroscopic analysis; assay type: functional, organism-based; conditions: time 3-5 day
Candida albicans [5] = experiment: Anti-virulence activity against Candida albicans SC5314 assessed as inhibition of fungal filamentation by measuring reduction in hyphae formation in YPS medium at 5 uM incubated for 3 to 5 days by stereomicroscopic analysis; assay type: functional, organism-based; conditions: time 3-5 day
[6] = Toxicity in zebrafish embryos assessed as mortality treated at 6 hpf and measured at 120 hpf by stereomicroscopic analysis; set-up: species or system Danio rerio; conditions: in vivo
Candida albicans [7] = experiment: Anti-virulence activity against Candida albicans SC5314 assessed as inhibition of fungal filamentation by measuring reduction in hyphae formation in RPMI medium at 5 uM incubated for 3 to 5 days by stereomicroscopic analysis; assay type: functional, organism-based; conditions: time 3-5 day
Candida albicans [8] = experiment: Antifungal activity against Candida albicans SC5314 assessed as inhibition of fungal growth incubated for 24 hrs by broth microdilution assay; assay type: functional
Candida albicans [9] = experiment: Anti-virulence activity against Candida albicans SC5314 assessed as inhibition of fungal filamentation by measuring reduction in hyphae formation in Lee medium at 5 uM incubated for 3 to 5 days by stereomicroscopic analysis; assay type: functional, organism-based; conditions: time 3-5 day
[10] = Hepatotoxicity in zebrafish embryos assessed as liver darkening at 25 uM treated at 6 hpf and measured at 120 hpf by stereomicroscopic analysis; assay type: toxicity, Danio rerio; conditions: in vivo
[11] = Toxicity against zebrafish embryo infected with 53-75 RFP expressing cells of Candida albicans M137 assessed as mortality at 2.5 to 10 uM treated at 1 hr post-infection and measured on day 4 post-infection; set-up: species or system Danio rerio; conditions: 96 h, dose 2.5-10 µM, time 4 day
[12] = Toxicity in zebrafish embryos assessed as toxic responses at 200 uM treated at 6 hpf and measured at 120 hpf by stereomicroscopic analysis; set-up: species or system Danio rerio; conditions: in vivo, 24 h

Row | Compound | Activity [1] | Activity [2] | Activity (Candida albicans [3]) | Activity (Candida albicans [4]) | Activity (Candida albicans [5]) | LC50 [6] | Activity (Candida albicans [7]) | MIC (Candida albicans [8]) | Activity (Candida albicans [9]) | Activity [10] | Activity [11] | Activity [12]
1 | CCC(C)n1ncn(-c2ccc(N3CCN(c4ccc(OCC5COC(Cn6cncn6)(c6ccc(Cl)cc6Cl)O5)cc4)CC3)cc2)c1=O (stereo unspecified) [ITRACONAZOLE] | Toxic | Toxic |  |  |  |  |  |  |  |  |  | 
2 | Nc1nnnn1-c1ccccc1 [FENAMOLE] |  |  | Active | Active | Active | > 200 µM | Active | > 200 µM | Active |  |  | 
3 | CC(=O)c1ccc(Nc2nnnn2Cc2ccccc2)cc1 |  |  |  |  |  | > 200 µM |  | > 200 µM |  |  |  | 
4 | COC(=O)c1cccc(Nc2nnnn2Cc2ccccc2)c1 |  |  |  |  |  |  |  | 35.4 µM (≈ 11 µg/mL) |  |  |  | 
5 | Clc1nccc(Nc2nnnn2Cc2ccccc2)n1 |  |  |  |  |  |  |  | 35.4 µM (≈ 10.2 µg/mL) |  | Toxic |  | 
6 | CCCn1nnnc1N |  |  | Active | Active | Active | > 200 µM | Active | > 200 µM | Active |  | Non-Toxic | 
7 | O=Cc1ccc(Nc2nnnn2Cc2ccccc2)cc1 |  |  | Active | Active | Active | > 200 µM | Active | > 200 µM | Active |  |  | 
8 | COc1ccc(Nc2nnnn2Cc2ccccc2)cc1 |  |  | Active | Active | Active | > 200 µM | Active | > 200 µM | Active |  |  | 
9 | c1ccc(Nc2nn[nH]n2)cc1 |  |  |  |  |  | > 200 µM |  | > 200 µM |  |  |  | Non-Toxic
10 | Nc1nnn[nH]1 |  |  | Active | Active | Active | > 200 µM | Active | > 200 µM | Active |  | Non-Toxic | Non-Toxic
11 | c1ccc(Cn2nnnc2Nc2cccnc2)cc1 |  |  |  |  |  | > 200 µM |  | > 200 µM |  |  |  | 
12 | c1ccc(Cn2nnc(Nc3ccccc3)n2)cc1 |  |  | Active | Active | Active | > 200 µM | Active | > 200 µM | Active |  |  | 
13 | CCCn1nnc(N)n1 |  |  |  |  |  | > 200 µM |  | > 200 µM |  |  |  | 
14 | N#Cc1ccc(Nc2nnnn2Cc2ccccc2)cc1 |  |  |  |  |  | > 200 µM |  | > 200 µM |  |  |  | 
